Laboratory results taken from a melting point compilation (Tetko et al.; mined from patent text by program, amines drawn as free bases though some values may be those of a salt).

SMILES	melting point [°C]
Cc1cc2c(c(C)c1NC(=O)CC(C)(C)C)C(O)C(C)(C)O2 (configuration not stated)	217 to 218
O=C(c1ccccc1)N1CC2C(C1)C2Nc1ncc2cc(-c3ccccc3Cl)c(=O)n(-c3ccc(F)cc3)c2n1 (configuration not stated)	242 to 244
O=C(O)c1ccc(-c2coc3ccccc23)cc1	222 to 225
Cc1c(-c2ccccc2Cl)n(-c2ccccc2)c(-c2ccccc2F)cc1=O	182 to 183
OC1CSC(Oc2cncc(-c3cncnc3)c2)C(O)C1O (configuration not stated)	196
CC(C)(C)c1cc(-c2nc(CS(C)(=O)=O)no2)cc(C(C)(C)C)c1O	153 to 155
Cc1c(N)cccc1C(=O)c1ccc(Cl)cc1	65
C#CC(C)(O)C1CCC2C3CC=C4CC(F)CCC4(C)C3CCC21C (configuration not stated)	213 to 214
CCCC(=O)C1=C(O)CC(c2c(C)c(C)c(C)c3c2OC(C)C3C)CC1=O (configuration not stated)	119 to 120
O=C(Nc1ccc2[nH]c(=O)c(=O)[nH]c2c1)C(F)(F)F	> 330
c1ccc2c(c1)Cn1cnnc1CN2	232 to 237
N#CC1=C(N)N(c2ccccc2)CC1=O	285 to 290
Nc1ccc(Oc2ccc(O)cc2)cc1	130 to 134
COc1ccc(-c2cc(=S)n(Cc3ccncc3)nc2-c2ccc(OC)cc2)cc1	160
CCc1c(-c2ccc(OCc3ccccc3)cc2)c2c(COC)cc3c(OCc4ccccc4)ccc1n32	127 to 130
CCCn1c(=O)c2c(N)n[nH]c2n(Cc2ccccc2)c1=O	214 to 215
O=[N+]([O-])c1cc(O)c(O)c([N+](=O)[O-])c1	168 to 170
COc1ccc(CC(=O)C=NN=P(c2ccccc2)(c2ccccc2)c2ccccc2)cc1	111 to 112
Cc1cnc2c(N)ccc(C)c2c1Cl	120 to 122
O=C(c1ccccc1)N1N=CCC1c1ccccc1 (configuration not stated)	105 to 106
COc1ccc2[nH]c(C(=O)c3ccccc3)cc2c1	159 to 161
CCCC(CC)(C(=O)N(C)C)n1cc(C)c(-c2ccccc2)n1 (configuration not stated)	147 to 148

SMILES	melting point [°C]
COc1ccc(-c2nc(N)ncc2-c2ccc(=O)n(C(C)C)n2)cc1	216
O=C(O)CCCCC[C@H]1CC[C@@H](O)CC1	83 to 85
Cc1oc(-c2ccco2)nc1COc1ccc(Cn2cc(CCC(=O)O)c(-c3ccc(C(F)(F)F)cc3)n2)cc1	92 to 93
FC(F)(F)c1ccc2sc(CCl)nc2c1	52
O=C(c1cccc(C(F)(F)F)c1)c1cc2c(F)ccc(Br)c2o1	114 to 115
O=C(O)c1snc(-c2ccccc2)c1O	161 to 163
N#CC(c1ccccc1Cl)N1CCc2sccc2C1 (configuration not stated)	121 to 124
O=C(O)c1cn2c3c(c(N4CCNCC4)ccc3c1=O)CCC2	267 to 268
Oc1cccc(-c2c(-c3ccccc3F)cnc3c(C(F)(F)F)cccc23)c1	186 to 187
Cc1[nH]cc(C#N)c1-c1ccc(Cl)cc1C(=O)c1ccccc1Cl	206 to 208
CCCc1cc(CCCOc2c(C)cc(-c3nc(C)no3)cc2C)on1	35 to 37
CC(=O)N1C[C@@H](P(c2ccc(C)cc2)c2ccc(C)cc2)[C@H](P(c2ccc(C)cc2)c2ccc(C)cc2)C1	164 to 167
CCCc1ccc(-c2nc(-c3ccccc3Cl)nn2C)c(Cl)c1	70 to 72
c1cnc(N2CCN(Cc3ccc(CN4CCN(c5ncccn5)CC4)cc3)CC2)nc1	193 to 195
O=C(O)Cc1c(C(=O)c2ccc(Cl)cn2)[nH]c2ccc(Cl)cc12	259 to 260
COc1ccc(-n2nc(O)c3c(=O)c4ccc(Cl)cc4[nH]c3c2=O)cc1	371 to 373
C=CCOc1ccc2c(=O)c(C)c(-c3ccccc3)oc2c1C(=O)C=Cc1ccccc1	145 to 147
Cc1c(-c2ccccc2)oc2cc(OCC3CO3)ccc2c1=O (configuration not stated)	231 to 235
O=C(Cc1cccc2ccccc12)N[C@H](Cc1ccc(C(F)(F)F)cc1)[C@@H](O)c1ccc(F)cc1 (racemic)	186 to 187
O=C(O)CN=c1sc2ccccc2s1	195 to 200
CN(C)c1ncc(-c2cc(Cl)cc(Cl)c2Cl)c(N)n1	145 to 147
Nc1ccccc1CS(=O)c1nc2ccccc2[nH]1 (configuration not stated)	164 to 165

Further lines, results first:

melting point [°C]	SMILES
192 to 194	N#CCNC(=O)C1(NC(=O)c2ccc(N3CCN(C(=O)OCC4c5ccccc5-c5ccccc54)CC3)cc2)CCCCC1
99.5 to 101	CCCCNCc1cccc(OCCCNc2nc(N)nn2C)c1
204 to 205	COC(=O)c1cccc2c1[nH]c1c3cc(Br)ccc3oc21
125 to 127	CCCCOc1ccc(C(C)NC(=O)NO)cc1 (configuration not stated)
193	COC(=O)CC(C(=O)OC)N1CCC(Nc2ncc3ncnc(Nc4cccc(Br)c4)c3n2)CC1 (configuration not stated)
89	CCCN(c1nc(-c2ccc(OC)cc2Cl)c(C)s1)c1cc(N)ccc1OC
241 to 242	Cc1cn(C2CCN(c3c(F)cc4c(=O)c(C(=O)O)cn5c4c3OCC5C)C2)nn1 (single isomer, unassigned; (-))
136 to 137	CC1=C(C(=O)c2ccc(Cl)cc2)C(=O)C2C=CC=CC2C1=O (configuration not stated)
103	C=C[C@@H](C[C@H](O)[C@H](CC1CCCCC1)NC(=O)[C@H](Cc1c[nH]cn1)NC(=O)[C@@H](CC(=O)N1CCC(C(=O)OCC)CC1)Cc1ccccc1)C(C)C
220	C#CCOc1ccc(OC)cc1-c1nc2ncccc2[nH]1
114 to 115	CC(=O)SCC(CSC(C)=O)C(=O)N(CC(=O)O)C1Cc2ccccc2C1
263	Cc1[nH]c(=O)[nH]c(=O)c1N1CCN(Cc2ccccc2)CC1
207 to 208	CSc1ccc(-c2coc3ccc(C(=O)NN)cc23)cc1Cl
205 to 206	COc1ccc(S(=O)(=O)Nc2c(/C=C/c3ccncc3)cccc2OC)cc1
204 to 206	CN(C)C1CCN(c2cccc(-c3cnc4[nH]cc(C(=O)C(C)(C)C)c4n3)c2)C1 (configuration not stated)
203 to 205	COc1cc(-n2nc(C#N)cc2-c2ccc(S(C)(=O)=O)cc2)ccc1Cl
74 to 78	CCC(C)=NOC(=NC1CCCCC1)N(C(=O)c1ccccc1)C1CCCCC1
205 to 207	CC12CCC3c4cc(N)c(OCc5ccccc5)cc4CCC3C1CCC2=O (configuration not stated)
132 to 136	COC(=O)c1cc(CS(=O)c2ccccc2)cnc1C1=NC(C)(C(C)C)C(=O)N1 (configuration not stated)
113 to 114	CCOC(=O)C(=Cc1ccc(NC)cc1[N+](=O)[O-])C(=O)OCC

melting point [°C]	SMILES
105 to 106	CCOC(=O)C1(I)C=CC(c2ccccc2)=CC1 (configuration not stated)
247 to 248	CCOC(=O)c1cc(=O)c2c(ccc3nc(C(=O)OC)cc(O)c32)o1
88 to 90	COC(=O)c1c(O)c(-c2ccccc2)nn1C
97 to 99	COCN(c1cccc2cc(-c3nc[nH]n3)n(COC)c12)S(=O)(=O)c1cccs1
147 to 148	O=C1N[C@@H](CC2CCCCC2)[C@H]1O
149 to 151	COC(=O)c1cc(C)sc1Nc1ccc(F)cc1[N+](=O)[O-]
220 to 221	COc1cc(OC)c(-c2cccs2)cc1/C=C/C(=O)c1ccc(S(=O)(=O)Nc2nccs2)cc1
181 to 182	C[C@@H](NC(=O)c1cnn(-c2ccc(Cl)cc2)c1C1CC1)[C@](O)(Cn1cncn1)c1ccc(F)cc1F
55.5 to 57.5	CC(=S)OCc1ccc([N+](=O)[O-])cc1
116 to 118	CC(O)COc1ccc(-c2ccc(C(CC3CCOCC3)c3ccc(S(=O)(=O)C4CC4)cc3)[nH]2)nc1 (configuration not stated)
175 to 179	Cc1noc(C)c1-c1ccncc1OC1SCC(O)C(O)C1O (configuration not stated)
270 to 272	Cn1nc(S(C)(=O)=O)c(=O)c2ccc(Cl)cc21
97	CCOC(=O)/C=C1\CCOc2ccc(N)cc21
142 to 146	CS(=O)(=O)n1c(=NC(F)(F)F)oc2ccccc21
108 to 110	Cc1ccccc1C(C(=O)N[C@H]1CCN(CCc2ccc(F)cc2)C1)c1ccccc1C
128 to 132	Clc1ccc(NC2CCC3(CCNCC3)CC2)cc1Cl
105 to 107	CC(C)NS(=O)(=O)Cc1ccc(N)cc1
200 to 202	O=C(O)CCNC(=O)c1ccccc1NC(=O)c1ccccc1O
75.5 to 76	O=C(O)CC1(CNC(=O)OC(OC(=O)c2ccccc2)c2ccccc2)CCCCC1 (configuration not stated)
111 to 112	COc1ccc(/C(=C\C=C\C(=O)Oc2ccc([N+](=O)[O-])cc2)C2CC2)cc1

melting point [°C]	SMILES
183 to 184	Oc1cccc2c1C[C@@H](O)[C@H](O)C2 (relative stereo)
40 to 41	C=CCOc1cc(C)c(OC(C)=O)c(C)c1C
144 to 145	Cc1nnc(C=Cc2ccccc2OCC(O)CNC2CC2)s1 (configuration not stated)
164 to 166	CC(=O)NCc1ccc(CN2CCN(c3ccncc3)CC2)cc1
193 to 194	NNC(=O)c1ccc2ncccc2c1
278	NS(=O)(=O)c1cccc(NC(=O)c2cnn3c(C(F)F)cc(-c4ccc(Cl)cc4)nc23)c1
186 to 187	CC(=O)OCS(=O)(=O)C1=CCC2C3CCC4=CC(=O)C=CC4(C)C3(F)C(O)CC12C (configuration not stated)
108 to 110	COc1cc(CCNC=O)cc2c1OCO2
214 to 215	CNC(=O)c1cc(C(=O)OCCO)cc(C(=O)NC)n1
72	O=C=Nc1ccc2c(c1)C(=O)CC2
96 to 97.8	COC(=O)COCCOc1ccc([N+](=O)[O-])cc1
232	CCN1CC2CCCC2C1CNC(=O)c1cc(S(N)(=O)=O)ccc1OC (configuration not stated)
254 to 256	Cc1cc(S(F)(F)(F)(F)F)c(S(C)(=O)=O)cc1C(=O)NC(=N)N
95	CCCC(C(=O)OCC)n1cnc(C(N)=O)c1 (configuration not stated)
94 to 94.5	O=C(O)CC1CCCc2c1n(Cc1ccc(Cl)cc1)c1c(F)cccc21 (configuration not stated)
233 to 235	O=C1COc2c(cc(Cl)cc2C(=O)NC2CCN(CCc3ccccc3)CC2)N1
58 to 60	COC(=O)C(C#N)c1ccccc1[N+](=O)[O-] (configuration not stated)
185 to 187	O=C(O)c1cccc(Oc2ccccc2Cl)c1[N+](=O)[O-]
